Reference: US10995068B2, “Synthetic sphingolipid-like molecules, drugs, methods of their synthesis and methods of treatment” (The Regents of the University of California, priority 2015, dated 2021)

Tests used:
Assay type in all cases: cell-based
[1] = test system: PI(3,5)P2 levels in HeLa cells; assay: Measurement of PI(3,5)P2 by HPLC
Method: In certain embodiments of the invention, sphingolipid-like molecules mis-localize PIKfyve preventing its association with TRMPL1 and inducing vacuolation, instead of inhibiting PIKfyve kinase activity. While PIKfyve localized to the limiting membrane of YM201636-induced vacuoles as expected, PIKfyve was present in clumps between vacuoles in FTY720-treated cells (FIGS. 57C and 56F).
Measurement of PI(3,5)P2 by HPLC. HeLa cells were rinsed twice with PBS and incubated in for 48 h in inositol labeling medium (inositol-free DMEM containing 5 μg/ml transferrin, 5 μg/ml insulin, 10% dialyzed FCS, 20 mM HEPES, 2 mM L-glutamine), and 10 μCi/ml myo-[2-^3H]inositol. Cells were lysed with 4.5% perchloric acid, scraped, and centrifuged at 14,000×g for 10 min at 4° C. Cell pellets were rinsed with 100 mM EDTA, centrifuged again, and re-suspended in 50 μl of water. To deacylate lipids, 1 ml methanol/40% methylamine/butanol (45.7% methanol, 10.7% methylamine, 11.4% butanol) were added and then the mixture was transferred to a glass vial and incubated at 55° C. for 1 h. After cooling to room temperature, samples were vacuum dried and re-suspended in 0.5 ml water. […] The aqueous phase was vacuum dried and re-suspended in 75 μl water and 50 μl of each sample was analyzed by HPLC. PI(3,5)P2 levels were expressed as a percentage of total phosphatidylinositol.

[2] = test system: cellular oxygen consumption; assay: Cellular oxygen consumption; settings: XF24 Extracellular Flux Analyzer
Description: Cells treated with oligomycin or rotenone/antimycin A, as expected, compensated for the loss of oxidative phosphorylation by increasing glycolysis, reducing the bound NADH fraction (FIG. 51F). Conversely, the glycolysis inhibitor 2-DG and starvation increased oxidative phosphorylation and the bound to free NADH ratio. SH-BC-893 mimicked the effect of amino acid and glucose starvation, increasing the bound NADH fraction and cellular oxygen consumption (FIGS. 51F and 51G). Cells responded similarly to the anti-inflammatory drug FTY720. Thus, the metabolic changes triggered by SH-BC-893 parallel those seen in cells with restricted access to key metabolic substrates.
Cell analysis: Viability and 4F2hc expression are determined by vital dye exclusion and flow cytometry. Oxygen consumption is measured with an XF24 Extracellular Flux Analyzer (Seahorse Bioscience); values are normalized to total protein. Confocal microscopy is performed on either a Zeiss LSM780 or a Nikon Eclipse Ti; vacuolation was monitored using a Nikon TE2000-S equipped with DIC filters. Anchorage-independent growth of SW620 cells is measured in DMEM-10 containing 0.35% agarose with a 0.5% agarose bottom layer. […] Plates were incubated at 37° C. in a humidified atmosphere containing 5% CO2 and colonies were counted after 12 days.

[3] = test system: 4F2hc, ASCT2, GLUT1; assay: Nutrient transporter internalization; settings: CD147 not affected
Description: As a proof of principle concerning the ability of C-aryl azacyclic constrained sphingolipid-like compounds, compound SH-BC-893 was examined thoroughly in a series of exemplary embodiment experiments. (The chemical structure of SH-BC-893, also referred to in the in this application as compound 5 and compound 104, and of FTY720 are shown in FIG. 51A). Results are provided below, along with a number of correlated data tables and graphs (Tables 7 and 8 and FIGS. 51-67). In embodiments, SH-BC-893 induces nutrient transporter loss and mimics starvation without the S1P receptor associated toxicity of FTY720. SH-BC-893 lacks the sphingosine-1-phosphate (S1P) receptor activity that prevents the use of FTY720 in cancer patients (FIG. 51B). […]
Light Microscopy: Brightfield and epifluorescence microscopy were conducted using a Nikon TE2000-S fluorescence microscope; confocal microscopy was performed on a Zeiss LSM780 confocal microscope or Nikon Eclipse Ti spinning disk confocal microscope. […] Co-localization was determined using JACoP plugin in ImageJ software. Macropinocytosis was measured after 16 h incubation in serum-free DMEM. p53−/−; LSL-K-RasG12D MEFs before (LSL) or after (KRasG12D) introduction of Cre were serum starved for 16 h and then treated with macropinocytosis inhibitor 5-(N-ethyl-N-isopropyl) amiloride (EIPA, 75 μM) for 1 h or SH-BC-893 for 6 h. […]

Structure (SMILES) | PI(3,5)P2 levels [1] | cellular oxygen consumption [2] | internalization of amino acid and glucose transporters (4F2hc, ASCT2, GLUT1) [3]
CCCCCCCCc1ccc(CCC(N)(CO)CO)cc1.Cl [FTY720, 2-Amino-2-[2-(4-octylphenyl)ethyl]propane 1,3-diol hydrochloride, reference compound] | did not inhibit PIKfyve kinase activity or reduce PI(3,5)P2 levels |  | 
CCCCCCCCc1ccc([C@H]2CCN[C@@H]2CO)cc1.Cl [Compound 5, (2S,3R)-2-(hydroxymethyl)-3-(4-octylphenyl)Pyrrolidinium chloride] |  | increasing | triggers the selective internalization
